# US12509460B2 (Skyhawk Therapeutics, Inc., priority 2019, dated 2025)
# Like-named read-outs stand apart in the source and are kept apart here.
# Assays:
# [1] = Quantitative splicing assay (HTT), qPCR; assay type: cell-based, human; conditions: Homo sapiens, GM04724, 24 h, GM04724 lymphoblasts, read-out: HTT Splicing: E49-50 EC50
# Method in brief: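 Patient lymphoblasts (50,000 cells/well) dosed immediately after plating for 24 h at 2.5 uM to 0.15 nM in 0.1% DMSO. Lysed, cDNA made directly from cells, and inclusion of the intron 49 cryptic exon quantified by TaqMan qPCR.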
# [2] = tested on: mHTT protein in GM04724 (CAG 70/20) Huntington's disease patient lymphoblast cells; experiment: mHTT protein assay, 2B7-MW1 assay via Mesoscale Discovery (MSD); assay type: cell-based, human
# Method in brief: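 Patient lymphoblasts treated 48 h with compound from 10 μM to 0.6 nM. mHTT quantified by MSD 2B7-MW1 immunoassay, whose signal depends on polyQ expansion and HTT size. Viability measured on a replicate plate by CellTiter Glo.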
# [3] = tested on: SMN FL and SMN Δ7 in spinal muscular atrophy (SMA) patient fibroblasts (GM03813, Coriell); experiment: Quantitative splicing assay (SMN), qPCR; assay type: cell-based, human; conditions: Homo sapiens, Fibroblast, 24 h, read-out: SMN2 Splicing FL EC50
# Protocol: Spinal muscular atrophy (SMA) patient fibroblasts (GM03813, Coriell) are plated in 96-well plates at 50,000 cells/well. […] Treated cells are lysed and cDNA synthesized using the Fast Advanced Cells-to-Ct kit (Thermofisher A35378) according to the manufacturer's instructions. 2 μL of each cDNA are used in qPCR reactions. […] Reactions are run in a Quant Studio 6 qPCR instrument with default settings.
# [4] = tested on: SMN protein in spinal muscular atrophy (SMA) patient fibroblasts (GM03813, Coriell); experiment: SMN protein assay, Mesoscale Discovery (MSD); assay type: cell-based, human; conditions: for EC50: read-out: SMN2 protein EC50
# Method in brief: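 SMA patient fibroblasts (GM03813) seeded at 7000 cells/well and exposed to compound at 2.5 μM to 0.6 nM for 48 hours. Lysates assayed for SMN by MSD immunoassay, with absolute SMN amount calculated from a per-plate SMN standard curve (1 μg/ml to 19.5 pg/ml).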
# [5] = tested on: MDR1 (P-gp); experiment: Blood-brain-barrier (BBB) penetration potential via MDCK-MDR1 permeability assay; conditions: dog; for Papp A→B at 120 min, 5 μM: MDCK-MDR1, pH 7.4, MDCK-MDR1: Papp A-B; for Papp B→A at 120 min, 5 μM: MDCK-MDR1, pH 7.4, MDCK-MDR1: Papp B-A
# [6] = tested on: MDR1-MDCK cell monolayers; experiment: as above
# [7] = tested on: MDR1; experiment: as above; conditions: dog, MDCK-MDR1, pH 7.4, MDCK-MDR1: Efflux
# [8] = GM04724 Huntington's disease patient lymphoblasts
# [9] = SMA patient fibroblasts GM03813, 24 h, qPCR
# [10] = SMA patient fibroblasts GM03813, 48 hours, MSD
# [11] = GM04724 (CAG 70/20) Huntington's disease patient lymphoblasts
# [12] = SMA patient fibroblasts (GM03813)
# [13] = SMA patient fibroblasts (GM03813), 48 hours
Structure (SMILES),EC50 ([1]; qPCR) [nM],"EC50 [2, 8] [nM]","EC50 [3, 9] [nM]","EC50 [4, 10] [nM]","Papp A→B at 120 min, 5 μM ([5]; A-B direction) [×10⁻⁶ cm/s]","Papp B→A at 120 min, 5 μM ([5]; B-A direction) [×10⁻⁶ cm/s]",MDCK-MDR1: % Recov A-B ([6]; A-B direction) [%],MDCK-MDR1: % Recov B-A ([6]; B-A direction) [%],"efflux ratio at 120 min, 5 μM ([7]; efflux ratio)",EC50 [1] [nM],"EC50 [2, 11] [nM]","EC50 [3, 12] [nM]","EC50 [4, 13] [nM]","Papp A→B at 120 min, 5 μM ([5]; A-B) [×10⁻⁶ cm/s]","Papp B→A at 120 min, 5 μM ([5]; B-A) [×10⁻⁶ cm/s]",MDCK-MDR1: % Recov A-B ([6]; A-B) [%],MDCK-MDR1: % Recov B-A ([6]; B-A) [%],"efflux ratio at 120 min, 5 μM [7]","SMN2 protein EC50 [4, 10]"
"CN(c1ccc(-c2ccc(-n3ccnn3)cc2O)nn1)[C@H]1C[C@@H]2CCC[C@@H](N2)[C@H]1F [Compound 62B, 2-(6-(((1R,2R,3S,5S)-2-fluoro-9-azabicyclo[3.3.1]nonan-3-yl)(methyl)amino)pyridazin-3-yl)-5-(1H-1,2,3-triazol-1-yl)phenol]",0.01 to 15,0.01 to 15,0.01 to 15,0.01 to 15,3.18,59.8,82,80,19,–,–,–,–,–,–,–,–,–,–
"CN(c1ccc(-c2ccc(-c3cnn(C)c3)cc2O)nn1)[C@@H]1C[C@H]2CCC[C@H](N2)[C@H]1F [Compound 14A, 2-(6-(((1S,2R,3R,5R)-2-fluoro-9-azabicyclo[3.3.1]nonan-3-yl)(methyl)amino)pyridazin-3-yl)-5-(1-methyl-1H-pyrazol-4-yl)phenol]",16 to 50,16 to 50,51 to 100,0.01 to 15,3,42.4,59,83,14,–,–,–,–,–,–,–,–,–,–
"CN(c1ccc(-c2cc3ncccc3cc2O)nn1)[C@H]1C[C@@H]2CCC[C@@H](N2)[C@H]1F [Compound 78B, 7-(6-(((1R,2R,3S,5S)-2-fluoro-9-azabicyclo[3.3.1]nonan-3-yl)(methyl)amino)pyridazin-3-yl)quinolin-6-ol]",0.01 to 15,0.01 to 15,0.01 to 15,0.01 to 15,4.03,50.3,73,79,12,–,–,–,–,–,–,–,–,–,–
"CN(c1ccc(-c2cc3ncccc3cc2O)nn1)[C@@H]1C[C@H]2CC[C@H](N2)[C@@H]1F [Compound 73A, 7-(6-(((1S,2S,3R,5R)-2-fluoro-8-azabicyclo[3.2.1]octan-3-yl)(methyl)amino)pyridazin-3-yl)quinolin-6-ol]",0.01 to 15,0.01 to 15,0.01 to 15,0.01 to 15,2.92,61.3,76,91,21,–,–,–,–,–,–,–,–,–,–
"CCc1cn(-c2ccc(-c3ccc(N(C)[C@@H]4C[C@H]5CC(F)(F)[C@@H](C4)N5)nn3)c(O)c2)cn1 [Compound 18A, 2-(6-(((1S,3R,5R)-6,6-difluoro-8-azabicyclo[3.2.1]octan-3-yl)(methyl)amino)pyridazin-3-yl)-5-(4-ethyl-1H-imidazol-1-yl)phenol]",16 to 50,51 to 100,16 to 50,0.01 to 15,7,40.7,56,71,6,–,–,–,–,–,–,–,–,–,–
"CN(c1ccc(-c2ccc(-c3cn[nH]c3)cc2O)nn1)[C@H]1C[C@@H]2CC[C@@H](N2)[C@H]1F (single isomer, unassigned) [Compound 42B]",0.01 to 15,0.01 to 15,0.01 to 15,0.01 to 15,0.71,27.7,78,73,39,–,–,–,–,–,–,–,–,–,–
"CN(c1ccc(-c2ccc(-n3nccn3)cc2O)nn1)[C@H]1C[C@@H]2CC[C@@H](N2)[C@H]1F [Compound 90B, 2-(6-(((1R,2R,3S,5S)-2-fluoro-8-azabicyclo[3.2.1]octan-3-yl)(methyl)amino)pyridazin-3-yl)-5-(2H-1,2,3-triazol-2-yl)phenol]",0.01 to 15,0.01 to 15,0.01 to 15,16 to 50,6.56,16.1,43,67,2,–,–,–,–,–,–,–,–,–,–
"Cc1nc2cc(O)c(-c3ccc(N(C)[C@H]4C[C@@H]5CC[C@@H](N5)[C@H]4F)nn3)cc2s1 [Compound 116B, 6-(6-(((1R,2R,3S,5S)-2-fluoro-8-azabicyclo[3.2.1]octan-3-yl)(methyl)amino)pyridazin-3-yl)-2-methylbenzo[d]thiazol-5-ol]",–,–,–,–,–,–,–,–,–,0.01 to 15,0.01 to 15,0.01 to 15,0.01 to 15,6.29,43.2,77,80,7,–
"CN(c1ccc(-c2cc3c(=O)n(C)ccc3cc2O)nn1)[C@H]1C[C@@H]2CC[C@H]([C@H]1F)N2C [Compound 98B, 7-(6-(((1R,2R,3S,5S)-2-fluoro-8-methyl-8-azabicyclo[3.2.1]octan-3-yl)(methyl)amino)pyridazin-3-yl)-6-hydroxy-2-methylisoquinolin-1(2H)-one]",–,–,–,–,–,–,–,–,–,16 to 50,16 to 50,16 to 50,16 to 50,5.01,52.6,88,87,10,–
"Cn1cnc2cc(-c3ccc(N(C4CC4)[C@H]4C[C@@H]5CC[C@@H](N5)[C@H]4F)nn3)c(O)cc2c1=O [Compound 56B, 7-(6-(cyclopropyl((1R,2R,3S,5S)-2-fluoro-8-azabicyclo[3.2.1]octan-3-yl)amino)pyridazin-3-yl)-6-hydroxy-3-methylquinazolin-4(3H)-one]",0.01 to 15,0.01 to 15,16 to 50,–,1.12,51.2,96,97,46,–,–,–,–,–,–,–,–,–,E (501 ≤ E ≤ 10.000)
"CN(c1ccc(-c2cc3c(=O)n(C)cnc3cc2O)nn1)[C@H]1C[C@@H]2CC[C@@H](N2)[C@H]1F [Compound 85B, 6-(6-(((1R,2R,3S,5S)-2-fluoro-8-azabicyclo[3.2.1]octan-3-yl)(methyl)amino)pyridazin-3-yl)-7-hydroxy-3-methylquinazolin-4(3H)-one]",0.01 to 15,0.01 to 15,0.01 to 15,0.01 to 15,0.71,48.5,98,103,68,–,–,–,–,–,–,–,–,–,–
